# Earlier results, collected in patent US20100087475A1, “PHARMACEUTICAL COMPOUNDS” (Biovali Laboratories International (Barbados) S.R.L., priority 2008, published 2010).
# Target: VMAT2 (Homo sapiens, UniProt Q05940)
# Settings: Erickson et al. (1996); cited from earlier work
# VMAT2, sequence (Q05940 whole entry): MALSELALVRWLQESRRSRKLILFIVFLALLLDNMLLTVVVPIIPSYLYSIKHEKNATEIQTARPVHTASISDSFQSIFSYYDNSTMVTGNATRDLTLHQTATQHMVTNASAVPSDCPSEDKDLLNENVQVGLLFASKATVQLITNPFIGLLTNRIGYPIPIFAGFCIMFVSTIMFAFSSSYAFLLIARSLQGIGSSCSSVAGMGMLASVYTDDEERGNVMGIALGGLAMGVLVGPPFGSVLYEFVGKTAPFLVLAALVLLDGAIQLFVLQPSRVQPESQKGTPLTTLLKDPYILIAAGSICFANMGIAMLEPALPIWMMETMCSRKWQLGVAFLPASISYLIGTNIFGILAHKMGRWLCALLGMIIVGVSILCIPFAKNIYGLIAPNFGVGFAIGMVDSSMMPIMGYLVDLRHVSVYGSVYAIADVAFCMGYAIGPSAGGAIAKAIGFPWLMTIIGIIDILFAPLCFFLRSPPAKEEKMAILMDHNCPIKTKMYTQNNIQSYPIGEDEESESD
smiles,measurement,value
"COc1cc2c(cc1OC)C1CC(=O)C(CC(C)C)CN1CC2 (stereo not shown) [tetrabenazine, 1,3,4,6,7,11b-hexahydro-9,10-dimethoxy-3-(2-methylpropyl)-2H-benzo(a)quinolizin-2-one]",affinity for VMAT2 in comparison to VMAT1,≥ 200 fold
